# Values quoted from earlier work, collected in US20240082153A1, “IVERMECTIN FORMULATION IN ORAL SOLUTION” (PROCAPS S.A., priority 2020, published 2024).
# Tests used:
# SARS-CoV-2 = details: in vitro, after 48 hours
substance,measurement,setting,value
Ivermectin,reduction in viral RNA,SARS-CoV-2,"approximately 5,000 fold"
same,solubility in water,,practically insoluble in water
